Laboratory results taken from the supplement of paper PMC10331698.
± gives the standard deviation of the averaged measurements.

Legend:
Experiment in all cases: level (log10 ratio to DMSO vehicle control); higher = higher biomarker level / cell amount than vehicle control
Settings in all cases: in DMSO
Perfluorooctanamide = compound: NC(=O)C(F)(F)C(F)(F)C(F)(F)C(F)(F)C(F)(F)C(F)(F)C(F)(F)F [Perfluorooctanamide]
Method: (§1)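 BioMAP Diversity Plus panel of 12 human primary cell co-culture systems (3C, 4H, LPS, SAg, BT, BF4T, BE3C, CASM3C, HDF3CGF, KF3CT, MyoF, Mphg). Compounds were added 1 h before stimulation and left for 24 h (MyoF 48 h; BT 72 h for soluble read-outs or 6 d for IgG). Biomarkers were read by ELISA, cytotoxicity by SRB, PBMC viability and proliferation by Alamar Blue. Each well value was divided by the mean of 8 DMSO control wells on the same plate and log10 transformed; duplicate blinded samples were tested at 4 concentrations.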

[1] = compound: CNS(=O)(=O)C(F)(F)C(F)(F)C(F)(F)C(F)(F)C(F)(F)C(F)(F)C(F)(F)C(F)(F)F [N-Methylperfluorooctanesulfonamide]
Method: as §1

1H,1H-Heptafluorobutanol = compound: OCC(F)(F)C(F)(F)C(F)(F)F [1H,1H-Heptafluorobutanol]
Method: as §1

[2] = compound: FC(F)(F)C(F)(F)C(F)(F)C(F)(F)C(F)(F)C(F)(F)C(F)(F)CCI [1-Iodo-1H,1H,2H,2H-perfluorononane]
Method: as §1

[3] = compound: O=P(O)(O)CCC(F)(F)C(F)(F)C(F)(F)C(F)(F)C(F)(F)C(F)(F)C(F)(F)C(F)(F)F [((Perfluorooctyl)ethyl)phosphonic acid]
Method: as §1

Hexafluoroglutaric acid = compound: O=C(O)C(F)(F)C(F)(F)C(F)(F)C(=O)O [Hexafluoroglutaric acid]
Method: as §1

[4] = compound: C=CC(=O)OCCC(F)(F)C(F)(F)C(F)(F)C(F)(F)F [2-(Perfluorobutyl)ethyl acrylate]
Method: as §1

Test System | level (log10) (Perfluorooctanamide; 6700 nM) | level (log10) (Perfluorooctanamide; 20000 nM) | level (log10) (Perfluorooctanamide; 60000 nM) | level (log10) ([1]; 6700 nM) | level (log10) ([1]; 20000 nM) | level (log10) ([1]; 60000 nM) | level (log10) (1H,1H-Heptafluorobutanol; 6700 nM) | level (log10) (1H,1H-Heptafluorobutanol; 20000 nM) | level (log10) (1H,1H-Heptafluorobutanol; 60000 nM) | level (log10) ([2]; 6700 nM) | level (log10) ([2]; 20000 nM) | level (log10) ([3]; 6700 nM) | level (log10) ([3]; 20000 nM) | level (log10) ([3]; 60000 nM) | level (log10) (Hexafluoroglutaric acid; 6700 nM) | level (log10) (Hexafluoroglutaric acid; 20000 nM) | level (log10) (Hexafluoroglutaric acid; 60000 nM) | level (log10) ([4]; 6700 nM) | level (log10) ([4]; 20000 nM) | level (log10) ([4]; 60000 nM)
SAg:CD62E/E-Selectin | -0.0135 ± 0.035 | -0.0265 ± 0.00071 | 0.0145 ± 0.0092 | -0.021 ± 0.0042 | -0.0475 ± 0.019 | -0.043 ± 0.0071 | 0.003 ± 0.013 | 0.01 ± 0.038 | 0.0125 ± 0.053 | 0 ± 0.014 | -0.0225 ± 0.053 | 0.0135 ± 0.0021 | 0.0275 ± 0.019 | -0.0155 ± 0.03 | -0.004 ± 0.033 | -0.008 ± 0.052 | -0.0025 ± 0.0078 | -0.0185 ± 0.012 | -0.1 ± 0.016 | -0.625 ± 0.068
LPS:CCL2/MCP-1 | -0.0295 ± 0.015 | 0.001 ± 0.0099 | -0.0765 ± 0.012 | -0.0135 ± 0.0035 | 0.0125 ± 0.0021 | 0.006 ± 0.021 | -0.0125 ± 0.018 | -0.0055 ± 0.0035 | -0.001 ± 0.017 | -0.008 ± 0.016 | 0.0145 ± 0.04 | -0.0075 ± 0.005 | -0.0255 ± 0.0092 | -0.046 ± 0.016 | -0.0135 ± 0.026 | -0.012 ± 0.011 | -0.004 ± 0.013 | -0.0075 ± 0.0035 | -0.02 ± 0.0085 | -0.0255 ± 0.029
3C:CXCL8/IL-8 | -0.013 ± 0.0042 | 0.002 ± 0.031 | 0.047 ± 0.021 | -0.0035 ± 0.0078 | 0.0575 ± 0.012 | 0.064 ± 0.0028 | 0.0005 ± 0.067 | -0.0055 ± 0.079 | 0.0185 ± 0.093 | 0.0085 ± 0.011 | 0.0165 ± 0.005 | 0.0315 ± 0.019 | 0.03 ± 0.018 | 0.0685 ± 0.0092 | -0.033 ± 0.0057 | -0.0185 ± 0.018 | 0.0015 ± 0.044 | -0.0155 ± 0.015 | -0.02 ± 0.0085 | 0.003 ± 0.024
BE3C:IL-1alpha | -0.015 ± 0.011 | -0.003 ± 0.0042 | 0.0045 ± 0.0064 | 0.0325 ± 0.005 | 0.042 ± 0.013 | 0.0695 ± 0.005 | 0.003 ± 0.011 | -0.0095 ± 0.022 | -0.0035 ± 0.018 | -0.0075 ± 0.0078 | 0.0075 ± 0.026 | -0.017 ± 0.016 | -0.019 ± 0.025 | 0.0085 ± 0.056 | -0.014 ± 0.027 | -0.0295 ± 0.005 | -0.0045 ± 0.016 | -0.0035 ± 0.022 | -0.0305 ± 0.03 | -0.012 ± 0.0057
BF4T:CCL2/MCP-1 | 0.011 ± 0.0042 | -0.0015 ± 0.0035 | -0.009 ± 0.037 | -0.022 ± 0.011 | -0.049 ± 0.025 | -0.0785 ± 0.083 | -0.002 ± 0.018 | 0.003 ± 0.057 | -0.0135 ± 0.0021 | -0.0135 ± 0.015 | -0.0245 ± 0.066 | 0.0125 ± 0.019 | 0.0295 ± 0.026 | 0.061 ± 0.02 | 0.0015 ± 0.043 | -0.0225 ± 0.005 | 0.0085 ± 0.032 | -0.009 ± 0.013 | -0.01 ± 0.0028 | -0.0325 ± 0.029
BE3C:HLA-DR | 0.001 ± 0.017 | -0.0035 ± 0.0078 | 0.0025 ± 0.0092 | -0.0225 ± 0.0064 | -0.0445 ± 0.012 | -0.039 ± 0.041 | -0.0035 ± 0.0021 | 0.0105 ± 0.00071 | 0.02 ± 0.03 | -0.0065 ± 0.0035 | -0.0225 ± 0.0092 | -0.025 ± 0.0099 | -0.031 ± 0.013 | -0.0075 ± 0.013 | -0.006 | -0.017 ± 0.0014 | -0.021 ± 0.028 | 0.0145 ± 0.022 | -0.02 ± 0.0071 | -0.0575 ± 0.005
BF4T:CCL26/Eotaxin-3 | 0.016 ± 0.017 | -0.0015 ± 0.057 | -0.0475 ± 0.0064 | -0.203 ± 0.005 | -0.199 ± 0.015 | -0.196 ± 0.047 | 0.0275 ± 0.04 | 0.0405 ± 0.022 | 0.0315 ± 0.013 | -0.0075 ± 0.0021 | -0.061 ± 0.0099 | -0.084 ± 0.0099 | -0.157 ± 0.018 | -0.14 ± 0.056 | 0.016 ± 0.054 | 0.0055 ± 0.042 | 0.043 ± 0.011 | -0.0005 ± 0.018 | -0.0295 ± 0.023 | -0.019 ± 0.02
